Data from PubChem BioAssay AID1259407 (Chemical Carcinogenesis Research Information System (CCRIS), 2018).
Activity calls are given as the source filed them. No rule for the calls is given here.

Tested on: CCRIS mutagenicity, Ames/micronucleus/aberration tests
Experiment: CCRIS mutagenicity studies

CC(C)CON=O
mutagenic call (Test System: AMES SALMONELLA TYPHIMURIUM, Strain/Indicator: TA1535, Metabolic Activation: RAT, LIVER, S-9, AROCLOR 1254 (30%), Method: PREINCUBATION): active; positive | mutagenic call (Test System: AMES SALMONELLA TYPHIMURIUM, Strain/Indicator: TA1535, Metabolic Activation: RAT, LIVER, S-9, AROCLOR 1254, Method: DESICCATOR): active; positive | mutagenic call (Test System: AMES SALMONELLA TYPHIMURIUM, Strain/Indicator: TA1535, Metabolic Activation: RAT, LIVER, S-9, AROCLOR 1254, Method: PREINCUBATION): active; positive | mutagenic call (Test System: AMES SALMONELLA TYPHIMURIUM, Strain/Indicator: TA1535, Metabolic Activation: RAT, LIVER, S-9, AROCLOR 1254, Method: STANDARD PLATE): active; positive | mutagenic call (Test System: AMES SALMONELLA TYPHIMURIUM, Strain/Indicator: TA1537, Metabolic Activation: HAMSTER, LIVER, S-9, AROCLOR 1254 (10%), Method: PREINCUBATION): inactive; negative | mutagenic call (Test System: AMES SALMONELLA TYPHIMURIUM, Strain/Indicator: TA1537, Metabolic Activation: HAMSTER, LIVER, S-9, AROCLOR 1254, Method: STANDARD PLATE): inactive; negative | mutagenic call (Test System: AMES SALMONELLA TYPHIMURIUM, Strain/Indicator: TA1537, Metabolic Activation: NONE, Method: FLUCTUATION (MICROTITER)): inactive; negative | mutagenic call (Test System: AMES SALMONELLA TYPHIMURIUM, Strain/Indicator: TA1537, Metabolic Activation: NONE, Method: PREINCUBATION): inactive; negative | mutagenic call (Test System: AMES SALMONELLA TYPHIMURIUM, Strain/Indicator: TA1537, Metabolic Activation: NONE, Method: STANDARD PLATE): inactive; negative | mutagenic call (Test System: AMES SALMONELLA TYPHIMURIUM, Strain/Indicator: TA1537, Metabolic Activation: RAT LIVER S-9, AROCLOR 1254, Method: FLUCTUATION (MICROTITER)): inactive; negative | mutagenic call (Test System: AMES SALMONELLA TYPHIMURIUM, Strain/Indicator: TA1537, Metabolic Activation: RAT, LIVER, S-9, AROCLOR 1254 (10%), Method: PREINCUBATION): inactive; negative | mutagenic call (Test System: AMES SALMONELLA TYPHIMURIUM, Strain/Indicator: TA1537, Metabolic Activation: RAT, LIVER, S-9, AROCLOR 1254, Method: STANDARD PLATE): inactive; negative | mutagenic call (Test System: AMES SALMONELLA TYPHIMURIUM, Strain/Indicator: TA7001, Metabolic Activation: NONE, Method: FLUCTUATION (MICROTITER)): inactive; negative | mutagenic call (Test System: AMES SALMONELLA TYPHIMURIUM, Strain/Indicator: TA7001, Metabolic Activation: RAT LIVER S-9, AROCLOR 1254, Method: FLUCTUATION (MICROTITER)): inactive; negative | mutagenic call (Test System: AMES SALMONELLA TYPHIMURIUM, Strain/Indicator: TA7002, Metabolic Activation: NONE, Method: FLUCTUATION (MICROTITER)): inactive; negative | mutagenic call (Test System: AMES SALMONELLA TYPHIMURIUM, Strain/Indicator: TA7002, Metabolic Activation: RAT LIVER S-9, AROCLOR 1254, Method: FLUCTUATION (MICROTITER)): inactive; negative | mutagenic call (Test System: AMES SALMONELLA TYPHIMURIUM, Strain/Indicator: TA7003, Metabolic Activation: NONE, Method: FLUCTUATION (MICROTITER)): inactive; negative | mutagenic call (Test System: AMES SALMONELLA TYPHIMURIUM, Strain/Indicator: TA7003, Metabolic Activation: RAT LIVER S-9, AROCLOR 1254, Method: FLUCTUATION (MICROTITER)): inactive; negative | mutagenic call (Test System: AMES SALMONELLA TYPHIMURIUM, Strain/Indicator: TA7004, Metabolic Activation: NONE, Method: FLUCTUATION (MICROTITER)): inactive; negative | mutagenic call (Test System: AMES SALMONELLA TYPHIMURIUM, Strain/Indicator: TA7004, Metabolic Activation: RAT LIVER S-9, AROCLOR 1254, Method: FLUCTUATION (MICROTITER)): inactive; negative | mutagenic call (Test System: AMES SALMONELLA TYPHIMURIUM, Strain/Indicator: TA7005, Metabolic Activation: NONE, Method: FLUCTUATION (MICROTITER)): inactive; negative | mutagenic call (Test System: AMES SALMONELLA TYPHIMURIUM, Strain/Indicator: TA7005, Metabolic Activation: RAT LIVER S-9, AROCLOR 1254, Method: FLUCTUATION (MICROTITER)): inactive; negative | mutagenic call (Test System: AMES SALMONELLA TYPHIMURIUM, Strain/Indicator: TA7006, Metabolic Activation: NONE, Method: FLUCTUATION (MICROTITER)): inactive; negative | mutagenic call (Test System: AMES SALMONELLA TYPHIMURIUM, Strain/Indicator: TA7006, Metabolic Activation: RAT LIVER S-9, AROCLOR 1254, Method: FLUCTUATION (MICROTITER)): inactive; negative | mutagenic call (Test System: MOUSE LYMPHOMA, Strain/Indicator: L5178Y (TK+/TK-), Metabolic Activation: NONE, Method: SUSPENSION/PLATE): active; positive | mutagenic call (Test System: MOUSE LYMPHOMA, Strain/Indicator: L5178Y (TK+/TK-), Metabolic Activation: RAT, LIVER, S-9, AROCLOR 1254, Method: SUSPENSION/PLATE): active; positive | mutagenic call (Test System: Mouse lymphoma, Strain/Indicator: L5178Y (tk+/tk-), Metabolic Activation: Rat, Liver, S-9, Aroclor 1254, Method: Suspension/plate): active; positive
